One data set has as its system OCI. Kind of data set: Growth inhibition of AML cell line OCI. The data set is classed as cell-based, human. The source says: (§1) The analogs were then further tested for inhibiting growth against various cancer cell lines: AML (Mol3, OCI), Colon cancer (HCT116) and Ovary cancer (SKOV3). IC50 are documented in Table 2.
In a further data set the test system is MOL3. Briefly: Growth inhibition of AML cell line MOL3. Type of data set: cell-based, human.
Text: as §1

The subject of another data set is HCT116 P53+/+. Briefly: Growth inhibition of colon cancer HCT116 P53+/+. Type of data set: cell-based.
Text: as §1

A further data set deals with SKOV3 P53+/+. Kind of data set: Growth inhibition of ovary cancer SKOV3 P53+/+. The data set is classed as cell-based.
Text: as §1

The next data set relates to HCT116 P53−/−. Briefly: Growth inhibition of colon cancer HCT116 P53−/−. Type of data set: cell-based.
Text: as §1

The next data set deals with SKOV3 P53−/−. Briefly: Growth inhibition of ovary cancer SKOV3 P53−/−. The data set is classed as cell-based.
Text: as §1

The subject of data set [1] is HL60 cells. Briefly: Growth of HL60 cells (IC50). Type of data set: cell-based, human. Conditions: growth, read-out: HL-60, IC50. How it is done: (§2) The analogs were then tested and evaluated on the ability to affect differentiation and growth of HL60 cells.
Data set [2] deals with HL60 cells. Briefly: Differentiation of HL60 cells (Dif50). The data set is classed as cell-based, human. The conditions noted are these: Homo sapiens, HL-60, HL-60 cells, differentiation; read-out: HL-60, Dif50.
Text: The tested compounds and their respective results are produced in Table 1. Those skilled in the art will appreciate that combining the securinine and/or norsecurinine analogs with other differentiation inducing agents, such as all-trans retinoic acid, cytarabine and/or an anthracycline, would be of further benefit. Those skilled in the art will appreciate that inducing differentiation may further reduce oxidative damage due to lower presence of radical inducing enzymes (see, e.g., Yamada et al. J Biol Chem 259(5)3021-3025 (1984) and Weil et al., PNAS 84:2057-2061 (1987)).
as §2

For another data set, the system named is mice. Kind of data set: Seizures in mice. Type of data set: in vivo. Conditions: due to GABA receptor binding. The source says:
The present invention provides for methods of treating a condition as described herein with less adverse additional effects. As is known in the art, securinine antagonizes the GABAA receptor.

Where [3] appears, read: Homo sapiens, HCT-116, colon cancer HCT116 P53+/+.
[4] abbreviates: Homo sapiens, SK-OV-3, ovary cancer SKOV3 P53+/+.
The mark [5] stands for this setting: Homo sapiens, HCT-116, colon cancer HCT116 P53−/−.
The mark [6] stands for this setting: Homo sapiens, SK-OV-3, ovary cancer SKOV3 P53−/−.

Read-outs that look alike come from different tables or passages of the source. A value given as a limit tells only on which side of the number the result lay.

Among the data in patent US9827229B2, “Small molecule securinine and norsecurinine analogs and their use in cancers, inflammatory diseases and infections” (INVENIO THERAPEUTICS INC., priority 2013, dated 2017) are IC50, EC50 and seizures in mice values, retold here.

In general, IC50 refers to the concentration that gives 50% inhibition.

`O=C1C=C2C(I)=C[C@@H]3C[C@@]2(O1)[C@H]1CCCCN31` [INVS-MG-82-II]: the 50% inhibitory concentration (IC50) worked out at 100 nM in the data set on OCI (Homo sapiens); 90 nM in the data set on MOL3 (Homo sapiens); 1400 nM with HCT116 P53+/+ (setting [3]); 1600 nM with SKOV3 P53+/+ (setting [4]); 1100 nM in the data set with HCT116 P53−/− (setting [5]); 3100 nM in the data set on SKOV3 P53−/− (setting [6]).

For the molecule `O=C1C=C2C(C#Cc3ccccc3)=C[C@@H]3C[C@@]2(O1)[C@H]1CCCCN31` [INVS-MG-110B], the IC50 in the data set with OCI (Homo sapiens) amounted to 80 nM; with MOL3 (Homo sapiens), 70 nM; in the data set on HCT116 P53+/+ (setting [3]), 1900 nM; in the data set with SKOV3 P53+/+ (setting [4]), 2100 nM; in the data set with HCT116 P53−/− (setting [5]), 2300 nM; with SKOV3 P53−/− (setting [6]), 3000 nM.

For the molecule `CN(C)CC#CC1=C[C@@H]2C[C@@]3(OC(=O)C=C13)[C@H]1CCCCN21` [INVS-MG-111B], the IC50 in the data set on OCI (Homo sapiens) was determined as 90 nM; in the data set with MOL3 (Homo sapiens), 70 nM; with HCT116 P53+/+ (setting [3]) it was 1100 nM; in the data set on SKOV3 P53+/+ (setting [4]) it was 1800 nM; with HCT116 P53−/− (setting [5]), 1500 nM; in the data set with SKOV3 P53−/− (setting [6]), 2800 nM.

Take `CCOC#CC1=C[C@@H]2C[C@@]3(OC(=O)C=C13)[C@H]1CCCCN21` [INVS-MG-120A]: the half-maximal inhibitory concentration (IC50) was 1600 nM with HCT116 P53+/+ (setting [3]), 1900 nM in the data set with SKOV3 P53+/+ (setting [4]), 2100 nM in the data set on HCT116 P53−/− (setting [5]) and 2600 nM in the data set with SKOV3 P53−/− (setting [6]).

As for `N#CCCCC#CC1=C[C@@H]2C[C@@]3(OC(=O)C=C13)[C@H]1CCCCN21` [INVS-MG-125A], the IC50 in the data set on HCT116 P53+/+ (setting [3]) was 1300 nM; with SKOV3 P53+/+ (setting [4]) it was 1300 nM; in the data set on HCT116 P53−/− (setting [5]), 2000 nM; in the data set with SKOV3 P53−/− (setting [6]), 2400 nM.

For `C=C(C)CC#CC1=C[C@@H]2C[C@@]3(OC(=O)C=C13)[C@H]1CCCCN21` [INVS-MG-132A], the IC50 amounted to 200 nM with OCI (Homo sapiens); 2400 nM in the data set on HCT116 P53+/+ (setting [3]); 2400 nM with SKOV3 P53+/+ (setting [4]); 2200 nM with HCT116 P53−/− (setting [5]); 3800 nM in the data set on SKOV3 P53−/− (setting [6]).

Turning to `COc1ccc(C#CC2=C[C@@H]3C[C@@]4(OC(=O)C=C24)[C@H]2CCCCN32)cc1` [INVS-MG-134C], the IC50 in the data set on OCI (Homo sapiens) was 80 nM; with MOL3 (Homo sapiens), 60 nM; in the data set with HCT116 P53+/+ (setting [3]), 1000 nM; with SKOV3 P53+/+ (setting [4]) it was 1200 nM; in the data set with HCT116 P53−/− (setting [5]), 1100 nM; with SKOV3 P53−/− (setting [6]), 2800 nM.

As for `O=C1C=C2C(C#Cc3ccsc3)=C[C@@H]3C[C@@]2(O1)[C@H]1CCCCN31` [INVS-MG-136-III], the IC50 is 115 nM in the data set on OCI; 100 nM with MOL3; 1800 nM in the data set on HCT116 P53+/+ (colon cancer HCT116 P53+/+); 700 nM in the data set with SKOV3 P53+/+ (ovary cancer SKOV3 P53+/+); 2200 nM in the data set on HCT116 P53−/− (colon cancer HCT116 P53−/−); below 0.07 µM in the data set with HL60 cells [1] (HL-60 cells, no unit in head or cell (other cells of the column print uM)). This molecule also had an IC50 with SKOV3 P53−/− (ovary cancer SKOV3 P53−/−) of 1100 nM.

Regarding `O=C1C=C2C(C#Cc3ccsc3)=C[C@@H]3C[C@@]2(O1)[C@H]1CCCCN31` [INVS-MG-136B], the half-maximal inhibitory concentration (IC50) was 60 nM in the data set with MOL3 (Homo sapiens); 2200 nM in the data set on HCT116 P53+/+ (setting [3]); 2800 nM in the data set with SKOV3 P53+/+ (ovary cancer SKOV3 P53+/+); 2100 nM in the data set with HCT116 P53−/− (setting [5]); 2900 nM with SKOV3 P53−/− (ovary cancer SKOV3 P53−/−).

Turning to `CCN(CC)CC#CC1=C[C@@H]2C[C@@]3(OC(=O)C=C13)[C@H]1CCCCN21` [INVS-MG-145A], the IC50 with HCT116 P53+/+ (setting [3]) is 1100 nM; with SKOV3 P53+/+ (setting [4]), 800 nM; in the data set with HCT116 P53−/− (setting [5]) it was 2100 nM; in the data set on SKOV3 P53−/− (setting [6]), 1200 nM.

With `CN(C)c1ccc(C#CC2=C[C@@H]3C[C@@]4(OC(=O)C=C24)[C@H]2CCCCN32)cc1` [INVS-MG-146B], the IC50 stood at 800 nM with HCT116 P53+/+ (setting [3]), 700 nM in the data set on SKOV3 P53+/+ (setting [4]), 1800 nM with HCT116 P53−/− (setting [5]) and 800 nM in the data set on SKOV3 P53−/− (setting [6]).

For the molecule `CCCN(CC#CC1=C[C@@H]2C[C@@]3(OC(=O)C=C13)[C@H]1CCCCN21)CCC` [INVS-MG-152A], the half-inhibitory concentration (IC50) with OCI (Homo sapiens) is 70 nM; in the data set on MOL3 (Homo sapiens), 80 nM; in the data set on HCT116 P53+/+ (setting [3]), 900 nM; with SKOV3 P53+/+ (setting [4]) it was below 600 nM; in the data set with HCT116 P53−/− (setting [5]), 1900 nM; with SKOV3 P53−/− (setting [6]), 700 nM.

As for `COc1ccc2cc(C#CC3=C[C@@H]4C[C@@]5(OC(=O)C=C35)[C@H]3CCCCN43)ccc2c1` [INVS-MG-157B], the IC50 with MOL3 (Homo sapiens) is 90 nM; in the data set with HCT116 P53+/+ (setting [3]) it was 700 nM; in the data set on SKOV3 P53+/+ (setting [4]), below 600 nM; with HCT116 P53−/− (setting [5]), 900 nM; in the data set with HL60 cells [1] (Homo sapiens, HL-60, HL-60 cells, no unit in head or cell (other cells of the column print uM)), 0.07 to 0.156 µM; with SKOV3 P53−/− (setting [6]), 700 nM.

For the molecule `O=C1C=C2C(C#Cc3cc4ccccc4c4ccccc34)=C[C@@H]3C[C@@]2(O1)[C@H]1CCCCN31` [INVS-MG-158B], the IC50 in the data set with HCT116 P53+/+ (setting [3]) is 1200 nM; in the data set with SKOV3 P53+/+ (setting [4]) it was 1200 nM; in the data set with HCT116 P53−/− (setting [5]), 2300 nM; with SKOV3 P53−/− (setting [6]), 3100 nM.

For `N#Cc1ccc(C#CC2=C[C@@H]3C[C@@]4(OC(=O)C=C24)[C@H]2CCCCN32)cc1` [INVS-MG-164B], the IC50 in the data set with HCT116 P53+/+ (setting [3]) worked out at 5200 nM; with SKOV3 P53+/+ (setting [4]) it was 6800 nM; with HCT116 P53−/− (setting [5]) it was 6400 nM; in the data set with SKOV3 P53−/− (setting [6]), 4200 nM.

In the case of `COc1cccc(C#CC2=C[C@@H]3C[C@@]4(OC(=O)C=C24)[C@H]2CCCCN32)c1` [INVS-MG-165B], the 50% inhibitory concentration (IC50) turned out to be 3200 nM in the data set on HCT116 P53+/+ (setting [3]), 3600 nM with SKOV3 P53+/+ (setting [4]), 4200 nM in the data set on HCT116 P53−/− (setting [5]) and 3500 nM with SKOV3 P53−/− (setting [6]).

As to `O=C1C=C2C(C#Cc3ccc(OC(F)(F)F)cc3)=C[C@@H]3C[C@@]2(O1)[C@H]1CCCCN31` [INVS-MG-166B], the 50% inhibitory concentration (IC50) with OCI (Homo sapiens) was above 300 nM; in the data set on MOL3 (Homo sapiens), above 300 nM; in the data set with HCT116 P53+/+ (setting [3]), 2400 nM; in the data set on SKOV3 P53+/+ (setting [4]), 3500 nM; in the data set on HCT116 P53−/− (setting [5]) it was 3800 nM; with SKOV3 P53−/− (setting [6]) it was 3200 nM.

For `O=C1C=C2C(c3cn(Cc4ccccc4)nn3)=C[C@@H]3C[C@@]2(O1)[C@H]1CCCCN31` [INVS-MG-209A], the half-inhibitory concentration (IC50) in the data set on HL60 cells [1] (Homo sapiens, HL-60, HL-60 cells) is below 10 µM. In addition, the EC50 in the data set on HL60 cells [2] is below 10000 nM.

For the molecule `O=C1C=C2C=C[C@@H]3C[C@@]2(O1)[C@H]1CCCCN31` [Securinine], the seizures in mice entry in the data set with mice is given as “causes seizures”.
